Laboratory results published in patent US8299048B2, “Hexahydrocyclopentyl[f]indazole sulfonamides and derivatives thereof as selective glucocorticoid receptor modulators” (Merck Sharp & Dohme Corp., priority 2008, dated 2012).
Like-named read-outs stand apart in the source and are kept apart here.

Target: T1, human GR (Homo sapiens, UniProt P04150)
T1 sequence (P04150 1-777): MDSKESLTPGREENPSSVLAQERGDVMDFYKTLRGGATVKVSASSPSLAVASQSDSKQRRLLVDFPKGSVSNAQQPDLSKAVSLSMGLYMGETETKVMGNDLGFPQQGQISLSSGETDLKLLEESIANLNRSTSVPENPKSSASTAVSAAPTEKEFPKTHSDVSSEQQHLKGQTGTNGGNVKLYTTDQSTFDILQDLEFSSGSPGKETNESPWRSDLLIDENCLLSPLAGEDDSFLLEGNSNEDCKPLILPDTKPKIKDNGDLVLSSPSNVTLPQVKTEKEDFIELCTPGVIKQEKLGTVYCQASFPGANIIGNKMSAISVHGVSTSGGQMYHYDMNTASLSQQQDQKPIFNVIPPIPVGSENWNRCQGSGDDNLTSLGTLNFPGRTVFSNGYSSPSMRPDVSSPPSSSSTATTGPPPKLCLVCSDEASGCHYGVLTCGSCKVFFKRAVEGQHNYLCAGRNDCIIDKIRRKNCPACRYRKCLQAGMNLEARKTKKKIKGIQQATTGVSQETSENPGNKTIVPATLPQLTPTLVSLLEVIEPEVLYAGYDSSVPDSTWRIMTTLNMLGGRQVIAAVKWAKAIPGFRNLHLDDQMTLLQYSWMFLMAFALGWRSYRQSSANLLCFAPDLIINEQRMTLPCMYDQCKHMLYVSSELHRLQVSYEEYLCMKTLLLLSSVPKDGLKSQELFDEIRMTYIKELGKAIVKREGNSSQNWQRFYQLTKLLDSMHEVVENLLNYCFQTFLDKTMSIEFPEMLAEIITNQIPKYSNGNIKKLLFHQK
Experiment: Transrepression Assay (GITAR), TNFα-β-lactamase reporter in U937 cells
Assay type: cell-based
Design: U937 cells contain an endogenous glucocorticoid receptor (GR); endogenous in cells; host or cells: U937 cells stably transfected with the TNF-alpha promoter/beta-lactamase reporter
Conditions: for GITAR > GRAMM % SEP: GITAR Emax minus GRAMMER Emax; for EC50: U937 cells, inflection point, read-out: Transrepression U937 Cells GITAR IP
In short: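 U937 cells stably carrying a TNF-α promoter–β-lactamase reporter, with endogenous GR, are preincubated with compound 30–45 min at 37 °C, then stimulated with PMA (5 ng/ml final) and LPS (100 ng/ml final) overnight (~18 hr). β-Lactamase is read with CCF2-AM substrate; repression by 100 nM dexamethasone defines 100%.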

[1] = U-937, U937 cells, maximum activity, read-out: Transrepression U937 Cells GITAR Emax
[2] = U-937, activity repressed by 100 nM dexamethasone alone set as 100%, read-out: maximal activity in the transrepression (GITAR) assay

Row | Structure (SMILES) | GITAR > GRAMM % SEP | EC50 | Emax [1] | Emax [2]
1 | C[C@]12Cc3cnn(-c4ccc(F)cc4)c3C=C1CC[C@@H]2CN(Cc1ccccc1F)S(=O)(=O)c1cccc(C(N)=O)c1 [Example 192, 3-[((2-fluorobenzyl){[(4αR,5S)-1-(4-fluorophenyl)-4α-methyl-1,4,4α,5,6,7-hexahydrocyclopenta[f]indazol-5-yl]methyl}amino)sulfonyl]benzamide] | 23.2% | 2910 nM | 27.5% | > 5%
2 | C[C@]12Cc3cnn(-c4ccc(F)cc4)c3C=C1CC[C@@H]2CN(CCCc1ccccc1)S(=O)(=O)CC(F)(F)F [Example 193, 2,2,2-trifluoro-N-{[(4αR,5S)-1-(4-fluorophenyl)-4α-methyl-1,4,4α,5,6,7-hexahydrocyclopenta[f]indazol-5-yl]methyl}-N-(3-phenylpropyl)ethanesulfonamide] | 18.6% | 170 nM | 74% | > 5%
3 | Cc1noc(C)c1S(=O)(=O)N(CCCc1ccccc1)C[C@H]1CCC2=Cc3c(cnn3-c3ccc(F)cc3)C[C@@]21C [Example 194, N-{[(4αR,5S)-1-(4-fluorophenyl)-4α-methyl-1,4,4α,5,6,7-hexahydrocyclopenta[f]indazol-5-yl]methyl}-3,5-dimethyl-N-(3-phenylpropyl)isoxazole-4-sulfonamide] | 14.4% | 291 nM | 56.2% | > 5%
4 | C[C@]12Cc3cnn(-c4ccc(F)cc4)c3C=C1CC[C@@H]2CN(CCCc1ccccc1)S(=O)(=O)c1ccccc1F [Example 195, 2-fluoro-N-{[(4αR,5S)-1-(4-fluorophenyl)-4α-methyl-1,4,4α,5,6,7-hexahydrocyclopenta[f]indazol-5-yl]methyl}-N-(3-phenylpropyl)benzenesulfonamide] | 17.1% | 486 nM | 30% | > 5%

Second part, the compound after the results:

Row | GITAR > GRAMM % SEP | EC50 | Emax [1] | Emax [2] | Structure (SMILES)
5 | 3.7% | 387 nM | 40.3% | > 5% | C[C@]12Cc3cnn(-c4ccc(F)cc4)c3C=C1CC[C@@H]2CN(CCc1ccccn1)S(=O)(=O)Cc1ccccc1C(N)=O [Example 196, 2-({[{[(4αR,5S)-1-(4-fluorophenyl)-4α-methyl-1,4,4α,5,6,7-hexahydrocyclopenta[f]indazol-5-yl]methyl}(2-pyridin-2-ylethyl)amino]sulfonyl}methyl)benzamide]
6 | 1.8% | 1040 nM | 45.5% | > 5% | CC([C@H]1CCC2=Cc3c(cnn3-c3ccc(F)cc3)C[C@@]21C)N(CCc1ccccn1)S(=O)(=O)Cc1cccnc1 (stereo partly drawn) [Example 197, N-{1-[(4αR)-1-(4-fluorophenyl)-4α-methyl-1,4,4α,5,6,7-hexahydrocyclopenta[f]indazol-5-yl]ethyl}-1-pyridin-3-yl-N-(2-pyridin-2-ylethyl)methanesulfonamide]
7 | 7.3% | 1150 nM | 15.5% | > 5% | C[C@]12Cc3cnn(-c4ccc(F)cc4)c3C=C1CC[C@@H]2CN(CCO)S(=O)(=O)Cc1ccccc1C(N)=O [Example 198, 2-({[{[(4αR,5S)-1-(4-fluorophenyl)-4α-methyl-1,4,4α,5,6,7-hexahydrocyclopenta[f]indazol-5-yl]methyl}(2-hydroxyethyl)amino]sulfonyl}methyl)benzamide]
8 | 22.2% | 506 nM | 80.8% | > 5% | CC(C)(O)CN(C[C@H]1CCC2=Cc3c(cnn3-c3ccc(F)cc3)C[C@@]21C)S(=O)(=O)c1ccccc1F [Example 199, 2-fluoro-N-{[(4αR,5S)-1-(4-fluorophenyl)-4α-methyl-1,4,4α,5,6,7-hexahydrocyclopenta[f]indazol-5-yl]methyl}-N-(2-hydroxy-2-methylpropyl)benzenesulfonamide]
9 | 28.4% | 308 nM | 85.9% | > 5% | C[C@]12Cc3cnn(-c4ccc(F)cc4)c3C=C1CC[C@@H]2CN(CC1(O)CC1)S(=O)(=O)c1ccccc1F [Example 200, 2-fluoro-N-{[(4αR,5S)-1-(4-fluorophenyl)-4α-methyl-1,4,4α,5,6,7-hexahydrocyclopenta[f]indazol-5-yl]methyl}-N-[(1-hydroxycyclopropyl)methyl]benzenesulfonamide]
10 | 21.7% | 486 nM | 69.5% | > 5% | C[C@]12Cc3cnn(-c4ccc(F)cc4)c3C=C1CC[C@@H]2CN(CC1(O)CCCCC1)S(=O)(=O)c1ccccc1F [Example 201, 2-fluoro-N-{[(4αR,5S)-1-(4-fluorophenyl)-4α-methyl-1,4,4α,5,6,7-hexahydrocyclopenta[f]indazol-5-yl]methyl}-N-[(1-hydroxycyclohexyl)methyl]benzenesulfonamide]
